In patent US11179393B2, “Methods of treating or preventing preterm labor” (priority 2014, dated 2021):

Test system: muscarinic receptor
Test: Test on salivary secretion in rat (oxotremorine-induced), compared with rhythmic bladder contraction test
Format: in vivo
Conditions: anesthetized Wistar rat; ID50 = 50% inhibition of saliva, ED30 = 30% inhibition of bladder contraction
Protocol: a. Test on Rhythmic Bladder Contraction in Rat
A female Wistar rat (130-200 g) is subjected to urethane anesthesia (1.0 g/kg s.c.), followed by ligation of the ureter on the kidney side. A urethral catheter is allowed to remain in the bladder, and about 1.0 mL of physiological saline is injected into the bladder through the catheter to cause rhythmic bladder contraction. Intravesical pressure is measured by a pressure transducer. After rhythmic contraction continues stable for at least 5 minutes, the test compound is cumulatively administered from the external jugular vein. Five to ten minutes later, the intravesical pressure is measured. An inhibition ratio of bladder contraction is determined compared with the bladder contraction before administration of the test compound and the dose of the test compound required for 30% inhibition of the bladder contraction before administration is designated as ED30.
b. Test on Salivary Secretion in Rat
A male Wistar rat (160-190 g) is subjected to anesthesia with urethane (0.8 g/kg i.p.), and the test compound is administered (to the control group: solvent). Fifteen minutes later, 0.8 μmol/kg of oxotremorine is administered. In each case, the drug is administered through the femoral artery. The saliva secreted for 5 minutes after the administration of oxotremorine is collected and weighed. […]

CN1[C@@H]2CC[C@H]1C[C@@H](OC(=O)C(CO)c1ccccc1)C2 (stereo partly shown) [atropine]
ID50 value (salivary secretion) relative to ED30 value (rhythmic bladder contraction): substantially the same
